Assay results as given in ChEMBL document CHEMBL4325853, “Design, synthesis and antibacterial evaluation of 2,4-disubstituted-6-thiophenyl-pyrimidines” (Eur J Med Chem, 2019).
≈ marks a conversion by molar mass, not a printed value.

Columns and labels:
Format in all cases: functional
[1] = tested on: Bacillus subtilis; assay: Antibacterial activity against Bacillus subtilis 168 after 18 hrs by broth microdilution method; conditions: subsp. subtilis str. 168, 18 h
[2] = tested on: Staphylococcus aureus; assay: Antibacterial activity against Staphylococcus aureus ATCC 29213 after 18 hrs by broth microdilution method; conditions: ATCC 29213, 18 h
[3] = tested on: Enterococcus faecium; assay: Antibacterial activity against Enterococcus faecium ATCC 49624 after 18 hrs by broth microdilution method; conditions: ATCC 49624, 18 h
[4] = tested on: Escherichia coli; assay: Antibacterial activity against Escherichia coli ATCC 25922 after 18 hrs by broth microdilution method; conditions: ATCC 25922, 18 h
[5] = tested on: Staphylococcus epidermidis; assay: Antibacterial activity against Staphylococcus epidermidis ATCC 12228 after 18 hrs by broth microdilution method; conditions: ATCC 12228, 18 h
[6] = tested on: Enterococcus faecalis; assay: Antibacterial activity against Enterococcus faecalis ATCC 29212 after 18 hrs by broth microdilution method; conditions: ATCC 29212, 18 h
[7] = tested on: Staphylococcus aureus; assay: Potency index, ratio of berberine MIC to test compound MIC for Staphylococcus aureus ATCC 29213
[8] = tested on: Enterococcus faecalis; assay: Potency index, ratio of berberine MIC to test compound MIC for Enterococcus faecalis ATCC 29212
[9] = tested on: Staphylococcus epidermidis; assay: Potency index, ratio of berberine MIC to test compound MIC for Staphylococcus epidermidis ATCC 12228
[10] = tested on: Enterococcus faecium; assay: Potency index, ratio of berberine MIC to test compound MIC for Enterococcus faecium ATCC 49624

| MIC90 [1] | MIC90 [2] | MIC90 [3] | MIC90 [4] | MIC90 [5] | MIC90 [6] | SMILES | Ratio [7] | Ratio [8] | Ratio [9] | Ratio [10] |
| --- | --- | --- | --- | --- | --- | --- | --- | --- | --- | --- |
| 128 µg/mL (≈ 312 µM) | 128 µg/mL (≈ 312 µM) | 192 µg/mL (≈ 468 µM) | > 192 µg/mL | 128 µg/mL (≈ 312 µM) | 192 µg/mL (≈ 468 µM) | Cc1nc(CCN2CCCN(Cc3ccc(F)cc3)CC2)cc(-c2cccs2)n1 | – | – | – | – |
| 128 µg/mL (≈ 299 µM) | 128 µg/mL (≈ 299 µM) | 128 µg/mL (≈ 299 µM) | > 192 µg/mL | 128 µg/mL (≈ 299 µM) | 128 µg/mL (≈ 299 µM) | Cc1nc(CCN2CCCN(Cc3ccc(F)c(F)c3)CC2)cc(-c2cccs2)n1 | – | – | – | – |
| > 192 µg/mL | > 192 µg/mL | > 192 µg/mL | > 192 µg/mL | > 192 µg/mL | > 192 µg/mL | Cc1nc(CCN(C)CCN(C)Cc2ccccc2)cc(-c2cccs2)n1 | – | – | – | – |
| 192 µg/mL (≈ 484 µM) | 192 µg/mL (≈ 484 µM) | > 192 µg/mL | > 192 µg/mL | 192 µg/mL (≈ 484 µM) | > 192 µg/mL | Cc1nc(CCN2CCN(Cc3ccc(F)cc3)CC2)cc(-c2cccs2)n1 | – | – | – | – |
| > 192 µg/mL | > 192 µg/mL | > 192 µg/mL | > 192 µg/mL | > 192 µg/mL | > 192 µg/mL | Cc1nc(CCNCCN2CCCCC2)cc(-c2cccs2)n1 | – | – | – | – |
| 192 µg/mL (≈ 468 µM) | 192 µg/mL (≈ 468 µM) | > 192 µg/mL | > 192 µg/mL | 192 µg/mL (≈ 468 µM) | > 192 µg/mL | Cc1nc(CCN2CCCN(Cc3ccccc3F)CC2)cc(-c2cccs2)n1 | – | – | – | – |
| > 192 µg/mL | > 192 µg/mL | > 192 µg/mL | > 192 µg/mL | > 192 µg/mL | > 192 µg/mL | Cc1nc(CCN2CCN(C(=O)OC(C)(C)C)CC2)cc(-c2cccs2)n1 | – | – | – | – |
| 64 µg/mL (≈ 143 µM) | 32 µg/mL (≈ 71.3 µM) | 64 µg/mL (≈ 143 µM) | 128 µg/mL (≈ 285 µM) | 32 µg/mL (≈ 71.3 µM) | 64 µg/mL (≈ 143 µM) | Cc1nc(CCN2CCCN(Cc3ccc(C(C)(C)C)cc3)CC2)cc(-c2cccs2)n1 | – | – | – | – |
| 4 µg/mL (≈ 8.14 µM) | 4 µg/mL (≈ 8.14 µM) | 8 µg/mL (≈ 16.3 µM) | 128 µg/mL (≈ 260 µM) | 4 µg/mL (≈ 8.14 µM) | 8 µg/mL (≈ 16.3 µM) | Fc1ccc(CN2CCCN(CCc3cc(-c4cccs4)nc(-c4ccncc4)n3)CC2)cc1F | 50 - 100 | 50 - 100 | 50 - 100 | 50 - 100 |
| 192 µg/mL (≈ 489 µM) | 192 µg/mL (≈ 489 µM) | > 192 µg/mL | > 192 µg/mL | 192 µg/mL (≈ 489 µM) | > 192 µg/mL | Cc1nc(CCN2CCCN(Cc3ccccc3)CC2)cc(-c2cccs2)n1 | – | – | – | – |
| > 192 µg/mL | > 192 µg/mL | > 192 µg/mL | > 192 µg/mL | > 192 µg/mL | > 192 µg/mL | Cc1nc(CCNCCN2CCCC2)cc(-c2cccs2)n1 | – | – | – | – |
| > 192 µg/mL | > 192 µg/mL | > 192 µg/mL | > 192 µg/mL | > 192 µg/mL | > 192 µg/mL | Cc1nc(CCN2C[C@@H]3C[C@H]2CN3C(=O)OC(C)(C)C)cc(-c2cccs2)n1 | – | – | – | – |
| > 192 µg/mL | > 192 µg/mL | > 192 µg/mL | > 192 µg/mL | > 192 µg/mL | > 192 µg/mL | Cc1nc(CCN2CCNCC2)cc(-c2cccs2)n1 | – | – | – | – |
